Tests used:
[1] = tested on: c-myc (DNA, G4) TGAGGGTGGGTAGGGTGGGTAA; test: ITC; settings: K+ (50 mM potassium phosphate); 50 mM KH2PO4-K2HPO4 pH 7.0, 25 °C; abstract misprints exponent as 10^-6
[2] = tested on: c-myc120 (DNA, G4) GAGGTATTTCGGGAGGTTTCGCCCCACGCCCTCTGCTTTGGGAACCCGGGAGGGGCGCTTATGGTGAGGGTGGGGAGGGTGGGGAAGGGGGAGGAGAGCGGTATTCGTGGTGTTCGGAGT; test: pulldown on streptavidin magnetic beads, qPCR; settings: K+ (50 mM potassium phosphate); 50 mM potassium phosphate pH 7.0, room temperature; immobilised compound; more than 50% recovery
[3] = tested on: dsoligo (12-ss(-)/12-ss(+)) (DNA, duplex) GCGAAACCTCCC/GGGAGGTTTCGC; test: pulldown on streptavidin magnetic beads, gel electrophoresis; settings: K+ (50 mM potassium phosphate); 5 µM compound, 5 µM DNA, pH 7.0, room temperature
[4] = tested on: c-myc (DNA, G4) TGAGGGTGGGTAGGGTGGGTAA; test: absorption titration (383 nm, Stootman fit); settings: K+ (50 mM potassium phosphate); 50 mM KH2PO4-K2HPO4 pH 7.0; 8 µM compound
[5] = tested on: c-myc (DNA, G4) TGAGGGTGGGTAGGGTGGGTAA; test: pulldown on streptavidin magnetic beads, gel electrophoresis; settings: K+ (50 mM potassium phosphate); 5 µM compound, 5 µM DNA, pH 7.0, room temperature
[6] = tested on: TA-core (DNA, G4) TAGGGTTAGGGTTAGGGTTAGGG; test: CD melting at 265 nm; settings: K+ (50 mM potassium phosphate); 50 mM potassium phosphate pH 7.0; 1.5 µM DNA, 3.0 µM compound
[7] = tested on: VEGF (DNA, G4) CGGGGCGGGCCTTGGGCGGGGT; test: ITC; settings: K+ (50 mM potassium phosphate); 50 mM KH2PO4-K2HPO4 pH 7.0, 25 °C
[8] = tested on: VEGF (DNA, G4) CGGGGCGGGCCTTGGGCGGGGT; test: CD melting at 265 nm; settings: K+ (50 mM potassium phosphate); 50 mM potassium phosphate pH 7.0; 1.5 µM DNA, 3.0 µM compound; printed ≧
[9] = tested on: c-myc-mut95 (DNA, single strand) GAGGTATTTCGGGAGGTTTCGCCACCTTCTTCACTCTCTTCACTCTCTTCATAAGCGCCCCTCCCGGGTTCCCCGGTATTCGTGGTGTTCGGAGT; test: pulldown on streptavidin magnetic beads, qPCR; settings: K+ (50 mM potassium phosphate); 50 mM potassium phosphate pH 7.0, room temperature; immobilised compound; 2 fmol DNA
[10] = tested on: c-myc (DNA, G4) TGAGGGTGGGTAGGGTGGGTAA; test: CD melting at 265 nm; settings: K+ (50 mM potassium phosphate); 50 mM potassium phosphate pH 7.0; 1.5 µM DNA, 3.0 µM compound; printed ≧; printed Tms differ by 6.6
[11] = tested on: TA-core (DNA, G4) TAGGGTTAGGGTTAGGGTTAGGG; test: ITC; settings: K+ (50 mM potassium phosphate); 50 mM KH2PO4-K2HPO4 pH 7.0, 25 °C
[12] = tested on: c-kit (DNA, G4) AGGGAGGGCGCTGGGAGGAGGG; test: ITC; settings: K+ (50 mM potassium phosphate); 50 mM KH2PO4-K2HPO4 pH 7.0, 25 °C
[13] = tested on: dsoligo (12-ss(-)/12-ss(+)) (DNA, duplex) GCGAAACCTCCC/GGGAGGTTTCGC; test: UV melting at 260 nm; settings: K+ (50 mM potassium phosphate); 50 mM potassium phosphate pH 7.0; 1.5 µM DNA, 3.0 µM compound

- K [1]: 3.9e+06 M⁻¹
- binding [2]: yes
- binding [3]: no
- K [4]: 8.9e+06 M⁻¹
- binding [5]: yes
- ΔTm [6]: 4.8 °C
- K [7]: 820000 M⁻¹
- ΔTm [8]: > 7.0 °C
- binding [9]: no
- ΔTm [10]: > 5.4 °C
- K [11]: 2.1e+06 M⁻¹
- K [12]: 200000 M⁻¹
- ΔTm [13]: 0.1 °C
Structure (SMILES): CN1CCCNC(=O)CC[C@H](NC(=O)CCOCCOCCOCCOCCNC(=O)CCCC[C@@H]2SC[C@@H]3NC(=O)N[C@@H]32)C(=O)NCCCN(C)CCCN2C(=O)c3ccc4c5c(ccc(c35)C2=O)C(=O)N(CCC1)C4=O
